Literature values in US20010003742A1, “Antilipemic formulation” (priority 1998, published 2001).

Details: gelatine itself

For gelatine, the haemostatic effect is listed as “only displays a haemostatic effect after an addition of thrombin”.
